Where two headings read alike, the source gives them in different places.
Columns and labels:
Test in all cases: Kinase binding screen
Conditions in all cases: read-out: Percent Control at 100 nM Compound Concentration
LCK = LCK (Homo sapiens (Human), UniProt P06239)
INSRR = INSRR (Homo sapiens (Human), UniProt P14616)
MLK2 = MLK2 (Homo sapiens (Human), UniProt Q02779)
PAK4 = PAK4 (Homo sapiens (Human), UniProt O96013)
RAF1 = RAF1 (Homo sapiens (Human), UniProt P04049)
[1] = molecular target: JAK1(JH1domain-catalytic) (Homo sapiens (Human), UniProt P23458)
Sequence of JAK1(JH1domain-catalytic) (P23458 875-1153): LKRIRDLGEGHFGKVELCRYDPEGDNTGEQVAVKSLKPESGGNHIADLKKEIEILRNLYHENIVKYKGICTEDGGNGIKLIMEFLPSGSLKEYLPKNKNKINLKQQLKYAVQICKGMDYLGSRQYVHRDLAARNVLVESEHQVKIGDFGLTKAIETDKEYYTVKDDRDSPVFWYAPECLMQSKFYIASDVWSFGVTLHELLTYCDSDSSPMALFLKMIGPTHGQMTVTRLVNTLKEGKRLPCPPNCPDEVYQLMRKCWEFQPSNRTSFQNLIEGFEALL

LZK = LZK (Homo sapiens (Human), UniProt O43283)
MARK1 = MARK1 (Homo sapiens (Human), UniProt Q9P0L2)
Sequence of MARK1 (Q9P0L2 whole entry): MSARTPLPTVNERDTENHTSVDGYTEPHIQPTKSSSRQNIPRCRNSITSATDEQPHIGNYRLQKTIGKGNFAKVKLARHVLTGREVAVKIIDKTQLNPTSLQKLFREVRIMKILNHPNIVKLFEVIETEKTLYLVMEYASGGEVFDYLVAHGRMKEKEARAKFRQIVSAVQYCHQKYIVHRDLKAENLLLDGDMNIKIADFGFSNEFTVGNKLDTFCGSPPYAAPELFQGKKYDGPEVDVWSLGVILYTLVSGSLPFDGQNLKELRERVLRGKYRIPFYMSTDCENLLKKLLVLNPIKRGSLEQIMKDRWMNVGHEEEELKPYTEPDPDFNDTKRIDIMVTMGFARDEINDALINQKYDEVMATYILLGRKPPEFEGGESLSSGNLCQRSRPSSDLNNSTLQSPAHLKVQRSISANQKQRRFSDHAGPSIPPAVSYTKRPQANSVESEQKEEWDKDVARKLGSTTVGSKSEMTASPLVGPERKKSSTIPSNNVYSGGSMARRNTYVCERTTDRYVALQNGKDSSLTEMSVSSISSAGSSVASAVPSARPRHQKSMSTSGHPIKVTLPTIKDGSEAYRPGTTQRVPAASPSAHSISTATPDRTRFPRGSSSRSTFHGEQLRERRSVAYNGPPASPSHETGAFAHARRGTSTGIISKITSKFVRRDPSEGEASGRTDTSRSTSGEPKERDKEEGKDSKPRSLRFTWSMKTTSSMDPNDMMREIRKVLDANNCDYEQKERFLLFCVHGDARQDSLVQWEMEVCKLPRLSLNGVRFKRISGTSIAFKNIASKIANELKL

DDR2 = DDR2 (Homo sapiens (Human), UniProt Q16832)
ERK4 = ERK4 (Homo sapiens (Human), UniProt P31152)
DYRK2 = DYRK2 (Homo sapiens (Human), UniProt Q92630)
NEK9 = NEK9 (Homo sapiens (Human), UniProt Q8TD19)
PIK3CA(Q546K) = PIK3CA(Q546K) (Homo sapiens (Human), UniProt P42336, Q546K)
ALK = ALK (Homo sapiens (Human), UniProt Q9UM73)
RIPK1 = RIPK1 (Homo sapiens (Human), UniProt Q13546)
KIT-autoinhibited = KIT-autoinhibited (Homo sapiens (Human), UniProt P10721)
EGFR(L861Q) = EGFR(L861Q) (Homo sapiens (Human), UniProt P00533, L861Q)
RIPK4 = RIPK4 (Homo sapiens (Human), UniProt P57078)
SBK1 = SBK1 (Homo sapiens (Human), UniProt Q52WX2)
CDK7 = CDK7 (Homo sapiens (Human), UniProt P50613)
Sequence of CDK7 (P50613 whole entry): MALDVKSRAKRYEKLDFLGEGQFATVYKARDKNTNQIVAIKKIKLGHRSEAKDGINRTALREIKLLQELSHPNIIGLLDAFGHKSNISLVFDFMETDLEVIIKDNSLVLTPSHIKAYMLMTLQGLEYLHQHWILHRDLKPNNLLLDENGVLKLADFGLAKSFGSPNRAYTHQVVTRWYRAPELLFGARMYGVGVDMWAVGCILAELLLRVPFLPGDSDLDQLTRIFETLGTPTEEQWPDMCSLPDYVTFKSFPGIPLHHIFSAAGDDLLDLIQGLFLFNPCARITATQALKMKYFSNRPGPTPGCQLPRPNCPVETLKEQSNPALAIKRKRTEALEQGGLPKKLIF

PRKCD = PRKCD (Homo sapiens (Human), UniProt Q05655)
Sequence of PRKCD (Q05655 whole entry): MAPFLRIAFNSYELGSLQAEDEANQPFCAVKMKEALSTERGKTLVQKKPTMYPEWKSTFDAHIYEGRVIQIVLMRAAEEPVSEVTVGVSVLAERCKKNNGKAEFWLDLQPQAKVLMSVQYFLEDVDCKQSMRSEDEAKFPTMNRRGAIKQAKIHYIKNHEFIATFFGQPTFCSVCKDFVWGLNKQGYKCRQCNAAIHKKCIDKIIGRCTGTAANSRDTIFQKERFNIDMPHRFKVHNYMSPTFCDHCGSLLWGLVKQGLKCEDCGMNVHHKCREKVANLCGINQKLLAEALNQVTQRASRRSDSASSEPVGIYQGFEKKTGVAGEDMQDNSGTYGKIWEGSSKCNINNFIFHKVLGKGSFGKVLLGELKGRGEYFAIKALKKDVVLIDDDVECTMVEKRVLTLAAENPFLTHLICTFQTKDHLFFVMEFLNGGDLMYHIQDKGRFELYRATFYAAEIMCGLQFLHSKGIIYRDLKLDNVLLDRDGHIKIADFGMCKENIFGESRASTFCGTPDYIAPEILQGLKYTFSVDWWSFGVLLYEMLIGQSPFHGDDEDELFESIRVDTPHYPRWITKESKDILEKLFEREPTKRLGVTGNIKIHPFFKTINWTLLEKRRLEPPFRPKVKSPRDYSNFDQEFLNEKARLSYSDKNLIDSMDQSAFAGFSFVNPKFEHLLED

CDK4 = CDK4 (Homo sapiens (Human), UniProt P11802)
Sequence of CDK4 (P11802 whole entry): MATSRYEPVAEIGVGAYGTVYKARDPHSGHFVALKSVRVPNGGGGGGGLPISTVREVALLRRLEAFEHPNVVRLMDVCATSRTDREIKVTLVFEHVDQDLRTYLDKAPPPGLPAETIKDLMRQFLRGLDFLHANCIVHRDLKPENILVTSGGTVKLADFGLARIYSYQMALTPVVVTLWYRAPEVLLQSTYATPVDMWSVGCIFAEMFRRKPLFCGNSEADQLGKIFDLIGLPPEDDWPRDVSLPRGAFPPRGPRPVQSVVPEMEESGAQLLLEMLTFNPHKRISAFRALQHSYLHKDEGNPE

FGFR1 = FGFR1 (Homo sapiens (Human), UniProt P11362)
Sequence of FGFR1 (P11362 22-822): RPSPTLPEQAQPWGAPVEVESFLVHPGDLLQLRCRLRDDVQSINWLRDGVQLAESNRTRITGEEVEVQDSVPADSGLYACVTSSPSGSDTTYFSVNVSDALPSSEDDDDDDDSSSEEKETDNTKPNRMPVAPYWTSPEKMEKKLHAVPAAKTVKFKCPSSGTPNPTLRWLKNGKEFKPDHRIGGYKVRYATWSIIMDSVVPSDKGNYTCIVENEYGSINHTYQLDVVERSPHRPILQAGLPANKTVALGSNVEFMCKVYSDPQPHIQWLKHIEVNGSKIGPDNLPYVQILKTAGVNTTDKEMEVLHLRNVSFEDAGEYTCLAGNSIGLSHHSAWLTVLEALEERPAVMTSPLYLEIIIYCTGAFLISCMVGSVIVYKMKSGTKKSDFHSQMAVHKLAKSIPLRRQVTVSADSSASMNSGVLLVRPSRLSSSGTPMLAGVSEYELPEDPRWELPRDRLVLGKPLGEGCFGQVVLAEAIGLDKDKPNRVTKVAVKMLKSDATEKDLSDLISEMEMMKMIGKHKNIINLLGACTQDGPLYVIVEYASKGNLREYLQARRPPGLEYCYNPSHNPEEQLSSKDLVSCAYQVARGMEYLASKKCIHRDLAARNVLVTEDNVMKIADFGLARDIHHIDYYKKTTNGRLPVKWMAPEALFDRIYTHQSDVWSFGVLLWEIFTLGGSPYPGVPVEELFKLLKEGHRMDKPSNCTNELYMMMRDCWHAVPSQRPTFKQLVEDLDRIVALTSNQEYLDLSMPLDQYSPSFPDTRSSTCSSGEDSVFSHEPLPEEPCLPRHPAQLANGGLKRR

DYRK1B = DYRK1B (Homo sapiens (Human), UniProt Q9Y463)
WNK3 = WNK3 (Homo sapiens (Human), UniProt Q9BYP7)
FLT3(D835Y) = FLT3(D835Y) (Homo sapiens (Human), UniProt P36888, D835Y)
FLT3(K663Q) = FLT3(K663Q) (Homo sapiens (Human), UniProt P36888, K663Q)
EGFR = EGFR (Homo sapiens (Human), UniProt P00533)

Sequence of PAK4 (O96013 whole entry): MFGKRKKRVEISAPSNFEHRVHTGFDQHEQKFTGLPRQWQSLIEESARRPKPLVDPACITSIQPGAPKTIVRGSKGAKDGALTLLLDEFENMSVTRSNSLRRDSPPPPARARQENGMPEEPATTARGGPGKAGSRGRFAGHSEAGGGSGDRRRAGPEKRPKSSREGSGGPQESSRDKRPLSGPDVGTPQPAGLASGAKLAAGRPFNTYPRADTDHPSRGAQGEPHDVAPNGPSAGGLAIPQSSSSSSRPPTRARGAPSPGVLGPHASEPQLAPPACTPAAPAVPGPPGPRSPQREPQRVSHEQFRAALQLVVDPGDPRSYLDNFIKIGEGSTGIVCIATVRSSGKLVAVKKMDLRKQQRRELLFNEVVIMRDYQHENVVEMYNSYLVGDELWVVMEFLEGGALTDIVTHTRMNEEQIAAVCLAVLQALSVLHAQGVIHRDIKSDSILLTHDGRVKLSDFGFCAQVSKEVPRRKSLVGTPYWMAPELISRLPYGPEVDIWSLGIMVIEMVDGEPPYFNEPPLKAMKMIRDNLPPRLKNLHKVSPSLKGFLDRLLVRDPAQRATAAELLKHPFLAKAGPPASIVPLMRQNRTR
Sequence of RAF1 (P04049 whole entry): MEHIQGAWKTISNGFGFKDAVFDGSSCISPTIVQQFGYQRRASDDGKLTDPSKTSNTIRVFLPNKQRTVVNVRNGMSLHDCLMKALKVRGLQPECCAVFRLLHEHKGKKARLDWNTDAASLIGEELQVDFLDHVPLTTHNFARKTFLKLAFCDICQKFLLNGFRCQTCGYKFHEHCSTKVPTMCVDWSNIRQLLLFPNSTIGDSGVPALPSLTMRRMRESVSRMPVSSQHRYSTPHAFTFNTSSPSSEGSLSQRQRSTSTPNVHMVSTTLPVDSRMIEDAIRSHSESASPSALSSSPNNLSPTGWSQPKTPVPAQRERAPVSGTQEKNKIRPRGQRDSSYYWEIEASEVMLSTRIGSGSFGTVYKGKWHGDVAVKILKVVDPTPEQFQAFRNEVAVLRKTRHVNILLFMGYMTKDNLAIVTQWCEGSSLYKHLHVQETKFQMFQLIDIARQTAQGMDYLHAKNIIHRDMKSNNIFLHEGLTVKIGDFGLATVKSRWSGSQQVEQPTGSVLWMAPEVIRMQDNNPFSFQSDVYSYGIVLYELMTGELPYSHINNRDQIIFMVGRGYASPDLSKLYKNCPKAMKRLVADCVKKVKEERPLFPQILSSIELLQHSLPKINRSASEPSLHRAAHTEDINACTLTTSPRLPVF
Sequence of LCK (P06239 whole entry): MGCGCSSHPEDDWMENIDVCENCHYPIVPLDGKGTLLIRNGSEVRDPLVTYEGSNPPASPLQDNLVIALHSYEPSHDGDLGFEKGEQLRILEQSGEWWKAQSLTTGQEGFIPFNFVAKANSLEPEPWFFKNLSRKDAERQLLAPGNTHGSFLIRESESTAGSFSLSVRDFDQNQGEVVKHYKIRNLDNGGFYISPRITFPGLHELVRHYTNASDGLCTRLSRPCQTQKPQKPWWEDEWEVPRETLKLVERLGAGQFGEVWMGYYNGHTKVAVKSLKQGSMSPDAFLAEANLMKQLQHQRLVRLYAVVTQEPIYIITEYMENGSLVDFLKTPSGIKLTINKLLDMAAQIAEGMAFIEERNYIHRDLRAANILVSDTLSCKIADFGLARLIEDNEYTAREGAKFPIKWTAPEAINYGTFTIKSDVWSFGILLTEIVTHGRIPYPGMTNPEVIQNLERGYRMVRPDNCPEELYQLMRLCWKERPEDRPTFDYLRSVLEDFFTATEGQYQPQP

SMILES: CN(C[C@H](Cc1ccccc1)OP(=O)(O)O)C(=O)c1cncc(C#Cc2cnn(C(F)F)c2)c1 [Example 19, (S)-1-(5-((1-(difluoromethyl)-1H-pyrazol-4-yl)ethynyl)-N-methylnicotinamido)-3-phenylpropan-2-yl dihydrogen phosphate]
- remaining activity at 0.1 µM (LCK): 95%
- remaining activity at 0.1 µM (INSRR): 100%
- remaining activity at 0.1 µM (MLK2): 69%
- remaining activity at 0.1 µM (PAK4): 98%
- remaining activity at 0.1 µM (RAF1): 100%
- remaining activity at 0.1 µM [1]: 100%
- remaining activity at 0.1 µM (LZK): 99%
- remaining activity at 0.1 µM (MARK1): 96%
- remaining activity at 0.1 µM (DDR2): 100%
- remaining activity at 0.1 µM (ERK4): 100%
- remaining activity at 0.1 µM (DYRK2): 97%
- remaining activity at 0.1 µM (NEK9): 100%
- remaining activity at 0.1 µM (PIK3CA(Q546K)): 88%
- remaining activity at 0.1 µM (ALK): 100%
- remaining activity at 0.1 µM (RIPK1): 91%
- remaining activity at 0.1 µM (KIT-autoinhibited): 94%
- remaining activity at 0.1 µM (EGFR(L861Q)): 86%
- remaining activity at 0.1 µM (RIPK4): 100%
- remaining activity at 0.1 µM (SBK1): 95%
- remaining activity at 0.1 µM (CDK7): 100%
- remaining activity at 0.1 µM (PRKCD): 94%
- remaining activity at 0.1 µM (CDK4): 93%
- remaining activity at 0.1 µM (FGFR1): 95%
- remaining activity at 0.1 µM (DYRK1B): 79%
- remaining activity at 0.1 µM (WNK3): 100%
- remaining activity at 0.1 µM (FLT3(D835Y)): 100%
- remaining activity at 0.1 µM (FLT3(K663Q)): 100%
- remaining activity at 0.1 µM (EGFR): 100%

SMILES: CN(C[C@@H](O)Cc1ccccc1)C(=O)c1cncc(C#Cc2cnn(C(F)F)c2)c1 [Example 2, (S)-5-((1-(difluoromethyl)-1H-pyrazol-4-yl)ethynyl)-N-(2-hydroxy-3-phenylpropyl)-N-methylnicotinamide]
- remaining activity at 0.1 µM (LCK; LCK): 100%
- remaining activity at 0.1 µM (INSRR; INSRR): 100%
- remaining activity at 0.1 µM (MLK2; MLK2): 66%
- remaining activity at 0.1 µM (PAK4; PAK4): 98%
- remaining activity at 0.1 µM (RAF1; RAF1): 100%
- remaining activity at 0.1 µM ([1]; JAK1(JH1domain-catalytic)): 100%
- remaining activity at 0.1 µM (LZK; LZK): 99%
- remaining activity at 0.1 µM (MARK1; MARK1): 100%
- remaining activity at 0.1 µM (DDR2; DDR2): 100%
- remaining activity at 0.1 µM (ERK4; ERK4): 100%
- remaining activity at 0.1 µM (DYRK2; DYRK2): 100%
- remaining activity at 0.1 µM (NEK9; NEK9): 100%
- remaining activity at 0.1 µM (PIK3CA(Q546K); PIK3CA(Q546K)): 96%
- remaining activity at 0.1 µM (ALK; ALK): 100%
- remaining activity at 0.1 µM (RIPK1; RIPK1): 26%
- remaining activity at 0.1 µM (KIT-autoinhibited; KIT-autoinhibited): 94%
- remaining activity at 0.1 µM (EGFR(L861Q); EGFR(L861Q)): 100%
- remaining activity at 0.1 µM (RIPK4; RIPK4): 100%
- remaining activity at 0.1 µM (SBK1; SBK1): 97%
- remaining activity at 0.1 µM (CDK7; CDK7): 100%
- remaining activity at 0.1 µM (PRKCD; PRKCD): 98%
- remaining activity at 0.1 µM (CDK4; CDK4): 100%
- remaining activity at 0.1 µM (FGFR1; FGFR1): 94%
- remaining activity at 0.1 µM (DYRK1B; DYRK1B): 97%
- remaining activity at 0.1 µM (WNK3; WNK3): 100%
- remaining activity at 0.1 µM (FLT3(D835Y); FLT3(D835Y)): 100%
- remaining activity at 0.1 µM (FLT3(K663Q); FLT3(K663Q)): 100%
- remaining activity at 0.1 µM (EGFR; EGFR): 93%
